{"source": "paper PMC11995724", "about": "“Antibiotic target discovery by integrated phenotypic and activity-based profiling of electrophilic fragments” (Cell chemical biology, 2025)"}
{"assay": "in vitro", "conditions": "human, hek293t cells", "units": {"viability at 48 h, 25 µM": "%"}}
{"compound": "Cc1ccc2nc(-c3ccc(N4C(=O)C=CC4=O)cc3)sc2c1", "note": "[10-K18, 1-[4-(6-methyl-1,3-benzothiazol-2-yl)phenyl]-2,5-dihydro-1H-pyrrole-2,5-dione]", "viability at 48 h, 25 µM": 107}
{"compound": "CC(Cl)C(=O)Nc1sc(-c2ccccc2)cc1C(N)=O", "note": "(centres unmarked) [4-H13, 2-(2-chloropropanamido)-5-phenylthiophene-3-carboxamide]", "viability at 48 h, 25 µM": 80.6}
{"compound": "O=C(CCl)Nc1ccccc1C(=O)c1ccccc1", "note": "[4-J06, N-(2-benzoylphenyl)-2-chloroacetamide]", "viability at 48 h, 25 µM": 1.12}
{"compound": "CC(Cl)C(=O)N1CCOCC1", "note": "(centres unmarked) [5-H09, 2-chloro-1-(morpholin-4-yl)propan-1-one]", "viability at 48 h, 25 µM": 103}
{"compound": "C=CC(=O)N1CCC(C(=O)NCc2ncnn2CC)CC1", "note": "[3-P03, N-[(1-ethyl-1H-1,2,4-triazol-5-yl)methyl]-1-(prop-2-enoyl)piperidine-4-carboxamide]", "viability at 48 h, 25 µM": 71.2}
{"compound": "CC(C)OC(=O)c1c(NC(=O)CCl)sc2c1CCCC2", "note": "[4-E21, propan-2-yl 2-(2-chloroacetamido)-4,5,6,7-tetrahydro-1-benzothiophene-3-carboxylate]", "viability at 48 h, 25 µM": 112}
{"compound": "C=CC(=O)NC1CCS(=O)(=O)c2ccc(F)cc21", "note": "(centres unmarked) [2-J19, N-(6-fluoro-1,1-dioxo-3,4-dihydro-2H-1lambda6-benzothiopyran-4-yl)prop-2-enamide]", "viability at 48 h, 25 µM": 55.4}
{"compound": "C[C@H]1CN(C(=O)CCl)CCN1C(=O)c1cscn1", "note": "[5-L05, 2-chloro-1-[(3S)-3-methyl-4-(1,3-thiazole-4-carbonyl)piperazin-1-yl]ethan-1-one]", "viability at 48 h, 25 µM": 2.69}
{"compound": "CC(Cl)C(=O)N(C)C1CCCc2c1cnn2C", "note": "(centres unmarked) [6-L16, 2-chloro-N-methyl-N-(1-methyl-4,5,6,7-tetrahydro-1H-indazol-4-yl)propanamide]", "viability at 48 h, 25 µM": 112}
{"compound": "C=CC(=O)Nc1ccc(C(=O)C(F)F)cc1", "note": "[1-M20, N-[4-(2,2-difluoroacetyl)phenyl]prop-2-enamide]", "viability at 48 h, 25 µM": 104}
{"compound": "O=C(CCl)NCc1cc(C(F)F)no1", "note": "[6-H08, 2-chloro-N-{[3-(difluoromethyl)-1,2-oxazol-5-yl]methyl}acetamide]", "viability at 48 h, 25 µM": 5.77}
{"compound": "COc1ccc(C=C(C#N)C(=O)NCc2ccccc2)cc1", "note": "[8-K19, N-benzyl-2-cyano-3-(4-methoxyphenyl)prop-2-enamide]", "viability at 48 h, 25 µM": 77.3}
{"compound": "CC(Cl)C(=O)NC(C)C(c1ccccc1Cl)n1cccn1", "note": "(centres unmarked) [6-P09, 2-chloro-N-[1-(2-chlorophenyl)-1-(1H-pyrazol-1-yl)propan-2-yl]propanamide]", "viability at 48 h, 25 µM": 119}
{"compound": "Cc1ccc(C(NC(=O)CCl)c2cccs2)cc1", "note": "(centres unmarked) [4-H16, 2-chloro-N-[(4-methylphenyl)(thiophen-2-yl)methyl]acetamide]", "viability at 48 h, 25 µM": 0.348}
{"compound": "N#CC(=Cc1ccc(-c2ccccc2)cc1)C(=O)NCc1ccccc1", "note": "[8-C06, N-benzyl-3-{[1,1'-biphenyl]-4-yl}-2-cyanoprop-2-enamide]", "viability at 48 h, 25 µM": 81.4}
{"compound": "CC(=O)NCc1ccc(C(=O)CCl)o1", "note": "[10-I10, N-{[5-(2-chloroacetyl)furan-2-yl]methyl}acetamide]", "viability at 48 h, 25 µM": 86.8}
{"compound": "C=CCNC(=O)C(C#N)=Cc1ccc(C)c(C)c1", "note": "[9-D21, 2-cyano-3-(3,4-dimethylphenyl)-N-(prop-2-en-1-yl)prop-2-enamide]", "viability at 48 h, 25 µM": 110}
{"compound": "CC(NC(=O)C(C#N)=Cc1ccccc1F)c1ccccc1", "note": "(centres unmarked) [8-P16, 2-cyano-3-(2-fluorophenyl)-N-(1-phenylethyl)prop-2-enamide]", "viability at 48 h, 25 µM": 61.8}
{"compound": "C=CC(=O)N1CCN(S(C)(=O)=O)[C@H](C)C1", "note": "[1-G15, 1-[(3R)-4-methanesulfonyl-3-methylpiperazin-1-yl]prop-2-en-1-one]", "viability at 48 h, 25 µM": 101}
{"compound": "C=CC(=O)Nc1cc(-c2ccco2)nn1C(C)(C)C", "note": "[1-K19, N-[1-tert-butyl-3-(furan-2-yl)-1H-pyrazol-5-yl]prop-2-enamide]", "viability at 48 h, 25 µM": 118}
{"compound": "C=CC(=O)NCCC(=O)N1CCc2ncncc2C1", "note": "[2-C04, N-(3-oxo-3-{5H,6H,7H,8H-pyrido[4,3-d]pyrimidin-6-yl}propyl)prop-2-enamide]", "viability at 48 h, 25 µM": 93.3}
{"compound": "C=CC(=O)NC(c1nc(C)cs1)C(F)(F)F", "note": "(centres unmarked) [2-I17, N-[2,2,2-trifluoro-1-(4-methyl-1,3-thiazol-2-yl)ethyl]prop-2-enamide]", "viability at 48 h, 25 µM": 102}
{"compound": "CC(Cl)C(=O)NCc1ccccc1S(=O)(=O)N1CCOCC1", "note": "(centres unmarked) [7-K15, 2-chloro-N-{[2-(morpholine-4-sulfonyl)phenyl]methyl}propanamide]", "viability at 48 h, 25 µM": 86}
{"compound": "Cc1cccc(NC(=O)NC(=O)CCl)c1C", "note": "[4-D21, 3-(2-chloroacetyl)-1-(2,3-dimethylphenyl)urea]", "viability at 48 h, 25 µM": 0.759}
{"compound": "C=CC(=O)N1CCC(C(=O)NCc2ccc(C(N)=O)cc2)CC1", "note": "[3-J08, N-[(4-carbamoylphenyl)methyl]-1-(prop-2-enoyl)piperidine-4-carboxamide]", "viability at 48 h, 25 µM": 82.2}
{"compound": "Cn1c(N)c(C(=O)CCl)c(=O)[nH]c1=O", "note": "[10-I16, 6-amino-5-(2-chloroacetyl)-1-methyl-1,2,3,4-tetrahydropyrimidine-2,4-dione]", "viability at 48 h, 25 µM": 104}
{"compound": "N#CC(=Cc1cc(F)ccc1F)C(=O)Nc1ccc(F)cc1", "note": "[8-E10, 2-cyano-3-(2,5-difluorophenyl)-N-(4-fluorophenyl)prop-2-enamide]", "viability at 48 h, 25 µM": 87.5}
{"compound": "CNC(=O)c1ccc(O)c(NC(=O)CCl)c1", "note": "[5-C10, 3-(2-chloroacetamido)-4-hydroxy-N-methylbenzamide]", "viability at 48 h, 25 µM": 114}
{"compound": "Cn1cc(C=C(C#N)C(=O)NCCc2ccccc2)cn1", "note": "[8-L10, 2-cyano-3-(1-methyl-1H-pyrazol-4-yl)-N-(2-phenylethyl)prop-2-enamide]", "viability at 48 h, 25 µM": 101}
{"compound": "O=C(CCl)NCc1ccccc1S(=O)(=O)N1CCOCC1", "note": "[4-F22, 2-chloro-N-{[2-(morpholine-4-sulfonyl)phenyl]methyl}acetamide]", "viability at 48 h, 25 µM": 2.15}
{"compound": "C=CC(=O)N1CCC(C(=O)NCc2cccc(Cl)c2F)CC1", "note": "[3-N12, N-[(3-chloro-2-fluorophenyl)methyl]-1-(prop-2-enoyl)piperidine-4-carboxamide]", "viability at 48 h, 25 µM": 87.6}
{"compound": "C=CC(=O)NCc1ccc(N2CC(C)CS2(=O)=O)cc1", "note": "(centres unmarked) [3-J19, N-{[4-(4-methyl-1,1-dioxo-1lambda6,2-thiazolidin-2-yl)phenyl]methyl}prop-2-enamide]", "viability at 48 h, 25 µM": 95.4}
{"compound": "C=CC(=O)NCC1CCCc2nccn21", "note": "(centres unmarked) [2-B15, N-({5H,6H,7H,8H-imidazo[1,2-a]pyridin-5-yl}methyl)prop-2-enamide]", "viability at 48 h, 25 µM": 76.8}
{"compound": "C=CC(=O)Nc1cccc(C(O)C(F)(F)F)c1", "note": "(centres unmarked) [1-M16, N-[3-(2,2,2-trifluoro-1-hydroxyethyl)phenyl]prop-2-enamide]", "viability at 48 h, 25 µM": 102}
{"compound": "C=CC(=O)NC(c1ccccc1)c1nc(C)no1", "note": "(centres unmarked) [1-B13, N-[(3-methyl-1,2,4-oxadiazol-5-yl)(phenyl)methyl]prop-2-enamide]", "viability at 48 h, 25 µM": 109}
{"compound": "C=CC(=O)Nc1cccc(NS(=O)(=O)C2CC2)c1", "note": "[3-D16, N-(3-cyclopropanesulfonamidophenyl)prop-2-enamide]", "viability at 48 h, 25 µM": 80.5}
{"compound": "COC(=O)c1c(NC(=O)CCl)sc(Cl)c1-c1ccccc1", "note": "[4-E20, methyl 5-chloro-2-(2-chloroacetamido)-4-phenylthiophene-3-carboxylate]", "viability at 48 h, 25 µM": 0.576}
{"compound": "O=C(CCl)Nc1ccc(SC(F)F)cc1", "note": "[4-B10, 2-chloro-N-{4-[(difluoromethyl)sulfanyl]phenyl}acetamide]", "viability at 48 h, 25 µM": -0.0257}
{"compound": "C=CC(=O)NC1CCN(Cc2ccc(Cl)cc2)CC1", "note": "[1-N08, N-{1-[(4-chlorophenyl)methyl]piperidin-4-yl}prop-2-enamide]", "viability at 48 h, 25 µM": 101}
{"compound": "CC1CC(c2ccccc2F)N(C(=O)C(C)Cl)C1", "note": "(centres unmarked) [6-H18, 2-chloro-1-[2-(2-fluorophenyl)-4-methylpyrrolidin-1-yl]propan-1-one]", "viability at 48 h, 25 µM": 116}
{"compound": "O=C1C=CC(=O)N1c1ccccc1Sc1ccccc1", "note": "[10-K12, 1-[2-(phenylsulfanyl)phenyl]-2,5-dihydro-1H-pyrrole-2,5-dione]", "viability at 48 h, 25 µM": 63}
{"compound": "Cc1csc(C(C#N)C(=O)CCl)n1", "note": "(centres unmarked) [10-D12, 4-chloro-2-(4-methyl-1,3-thiazol-2-yl)-3-oxobutanenitrile]", "viability at 48 h, 25 µM": 6.6}
{"compound": "O=C(CCl)c1c[nH]c(C(=O)N2CCCC2)c1", "note": "[10-A16, 2-chloro-1-[5-(pyrrolidine-1-carbonyl)-1H-pyrrol-3-yl]ethan-1-one]", "viability at 48 h, 25 µM": 0.377}
{"compound": "C=CC(=O)NCc1ccc(OC)cc1", "note": "[1-K10, N-[(4-methoxyphenyl)methyl]prop-2-enamide]", "viability at 48 h, 25 µM": 92}
{"compound": "CC(Cl)C(=O)NC(C)c1nnc(-c2cccc(F)c2)s1", "note": "(centres unmarked) [5-N15, 2-chloro-N-{1-[5-(3-fluorophenyl)-1,3,4-thiadiazol-2-yl]ethyl}propanamide]", "viability at 48 h, 25 µM": 98.1}
{"compound": "COc1cc(C=C(C#N)C(=O)Nc2c(C)cc(C)cc2C)cc(OC)c1", "note": "[8-A18, 2-cyano-3-(3,5-dimethoxyphenyl)-N-(2,4,6-trimethylphenyl)prop-2-enamide]", "viability at 48 h, 25 µM": 26.3}
{"compound": "C=CC(=O)NC1CCn2cccc2C1", "note": "(centres unmarked) [3-N11, N-(5,6,7,8-tetrahydroindolizin-7-yl)prop-2-enamide]", "viability at 48 h, 25 µM": 71.4}
{"compound": "Cn1c(N)c(C(=O)CCl)c(=O)n(C)c1=O", "note": "[10-E14, 6-amino-5-(2-chloroacetyl)-1,3-dimethyl-1,2,3,4-tetrahydropyrimidine-2,4-dione]", "viability at 48 h, 25 µM": 89.9}
{"compound": "N#CC(C(=O)CCl)=C1NC(C23CC4CC(CC(C4)C2)C3)=CS1", "note": "[10-F14, 2-[4-(adamantan-1-yl)-2,3-dihydro-1,3-thiazol-2-ylidene]-4-chloro-3-oxobutanenitrile]", "viability at 48 h, 25 µM": 61.8}
{"compound": "CC(Cl)C(=O)NCc1cc(-c2ccccc2)on1", "note": "(centres unmarked) [7-A13, 2-chloro-N-[(5-phenyl-1,2-oxazol-3-yl)methyl]propanamide]", "viability at 48 h, 25 µM": 74.7}
{"compound": "CCCNC(=O)C(C#N)=Cc1ccns1", "note": "[9-G03, 2-cyano-N-propyl-3-(1,2-thiazol-5-yl)prop-2-enamide]", "viability at 48 h, 25 µM": 128}
{"compound": "C=CC(=O)Nc1cnc2cc(C)nn2c1", "note": "[2-M13, N-{2-methylpyrazolo[1,5-a]pyrimidin-6-yl}prop-2-enamide]", "viability at 48 h, 25 µM": 136}
{"compound": "CC(Cl)C(=O)NCCCN1CCc2ccccc2C1", "note": "(centres unmarked) [7-M11, 2-chloro-N-[3-(1,2,3,4-tetrahydroisoquinolin-2-yl)propyl]propanamide]", "viability at 48 h, 25 µM": 88.4}
